According to patent US11845724B2, “USP30 inhibitors and uses thereof” (Vincere Biosciences, Inc., priority 2019, dated 2023):
Counter-ions that a name gives are not always drawn.

molecular target: recombinant USP30 (amino acids 57-517 of the human sequence) (Homo sapiens (Human), UniProt Q70CQ3); test: In vitro USP30 biochemical assay (Ubiquitin-Rhodamine); conditions: USP30 IC50 μM (avg), Ubiquitin-Rhodamine substrate 25 nM, 1.5 nM recombinant USP30
Sequence (Q70CQ3 57-517): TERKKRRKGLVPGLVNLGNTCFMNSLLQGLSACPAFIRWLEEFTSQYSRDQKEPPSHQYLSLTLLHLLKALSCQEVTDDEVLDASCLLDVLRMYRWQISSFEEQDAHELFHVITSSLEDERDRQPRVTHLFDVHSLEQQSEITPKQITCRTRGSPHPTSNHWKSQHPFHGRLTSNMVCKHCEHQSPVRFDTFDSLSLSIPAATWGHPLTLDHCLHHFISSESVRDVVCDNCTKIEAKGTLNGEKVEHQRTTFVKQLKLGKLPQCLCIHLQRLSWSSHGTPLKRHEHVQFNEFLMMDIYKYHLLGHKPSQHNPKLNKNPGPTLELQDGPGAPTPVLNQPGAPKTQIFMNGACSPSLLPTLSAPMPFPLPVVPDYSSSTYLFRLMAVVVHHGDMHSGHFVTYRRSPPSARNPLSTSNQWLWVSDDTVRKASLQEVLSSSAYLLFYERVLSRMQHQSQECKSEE

Row | Structure (SMILES) | IC50 [µM]
1 | COc1cc(NC(=O)[C@H](Cc2ccccc2)NC(=O)c2ccc(F)cc2)ccc1S(=O)(=O)NC(C)(C)C#N [Compound I-180, (S)-N-(1-(4-(N-(2-cyanopropan-2-yl)sulfamoyl)-3-methoxyphenylamino)-1-oxo-3-phenylpropan-2-yl)-4-fluorobenzamide] | 0.05 to 1
2 | COc1cc(NC(=O)[C@H](Cc2ccccc2)NC(=O)c2ccc(F)cc2)ccc1S(=O)(=O)NC(C)(C)CCN1CCOCC1 [Compound I-154, (S)-4-fluoro-N-(1-(3-methoxy-4-(N-(2-methyl-4-morpholinobutan-2-yl)sulfamoyl)phenylamino)-1-oxo-3-phenylpropan-2-yl)benzamide] | 0.05 to 1
3 | C#CC(C)(C)NS(=O)(=O)c1ccc(NC(=O)[C@H](Cc2ccccc2)NC(=O)c2ccc(F)cc2)cc1OC [Compound I-181, (S)-4-fluoro-N-(1-(3-methoxy-4-(N-(2-methylbut-3-yn-2-yl)sulfamoyl)phenylamino)-1-oxo-3-phenylpropan-2-yl)benzamide] | 0.05 to 1
4 | COc1cc(NC(=O)[C@H](Cc2ccccc2)NC(=O)c2ccc(F)cc2)ccc1S(=O)(=O)NC(C)(C)CN1CCOCC1 [Compound I-153, (S)-4-fluoro-N-(1-(3-methoxy-4-(N-(2-methyl-1-morpholinopropan-2-yl)sulfamoyl)phenylamino)-1-oxo-3-phenylpropan-2-yl)benzamide] | 0.05 to 1
5 | CCNS(=O)(=O)c1ccc(NC(=O)[C@H](Cc2ccccc2)NC(=O)c2ccc(F)cc2)c(OC)c1 [Compound I-143, (S)-N-(1-(4-(N-ethylsulfamoyl)-2-methoxyphenylamino)-1-oxo-3-phenylpropan-2-yl)-4-fluorobenzamide] | 1 to 10
6 | COCCC(C)(C)NS(=O)(=O)c1ccc(NC(=O)[C@H](Cc2ccccc2)NC(=O)c2ccc(F)cc2)cc1Cl [Compound I-171, (S)-N-(1-(3-chloro-4-(N-(4-methoxy-2-methylbutan-2-yl)sulfamoyl)phenylamino)-1-oxo-3-phenylpropan-2-yl)-4-fluorobenzamide] | 0.05 to 1
7 | CC(C)(C#N)NS(=O)(=O)c1ccc(NC(=O)[C@H](Cc2ccccc2)NC(=O)c2ccc(F)cc2)cc1 [Compound I-172, (S)-N-(1-(4-(N-(2-cyanopropan-2-yl)sulfamoyl)phenylamino)-1-oxo-3-phenylpropan-2-yl)-4-fluorobenzamide] | 0.05 to 1
8 | COc1cc(S(=O)(=O)NC23CC(C2)C3)ccc1NC(=O)[C@H](Cc1ccccc1)NC(=O)c1ccc(F)cc1 [Compound I-145, (S)-N-(1-(4-(N-bicyclo[1.1.1]pentan-1-ylsulfamoyl)-2-methoxyphenylamino)-1-oxo-3-phenylpropan-2-yl)-4-fluorobenzamide] | 1 to 10
9 | COCC(C)(C)NS(=O)(=O)c1ccc(NC(=O)[C@H](Cc2ccccc2)N(C)C(=O)c2ccc(F)cc2)cc1 [Compound I-160, (S)-4-fluoro-N-(1-(4-(N-(1-methoxy-2-methylpropan-2-yl)sulfamoyl)phenylamino)-1-oxo-3-phenylpropan-2-yl)-N-methylbenzamide] | 1 to 10

More lines, now with the values ahead:

Row | IC50 [µM] | Structure (SMILES)
10 | 0.05 to 1 | C#CC(C)(C)NS(=O)(=O)c1ccc(NC(=O)[C@H](Cc2ccccc2)NC(=O)c2ccc(F)cc2)cn1 [Compound I-177, (S)-4-fluoro-N-(1-(6-(N-(2-methylbut-3-yn-2-yl)sulfamoyl)pyridin-3-ylamino)-1-oxo-3-phenylpropan-2-yl)benzamide]
11 | 0.05 to 1 | O=C(N[C@@H](Cc1ccccc1)C(=O)Nc1ccc(S(=O)(=O)NCCO)nc1)c1ccc(F)cc1 [Compound I-110, (S)-4-fluoro-N-(1-(6-(N-(2-hydroxyethyl)sulfamoyl)pyridin-3-ylamino)-1-oxo-3-phenylpropan-2-yl)benzamide]
12 | 0.05 to 1 | O=C(N[C@@H](Cc1ccccc1)C(=O)Nc1ccc(S(=O)(=O)NC2COC2)c(Cl)c1)c1ccc(F)cc1 [Compound I-170, (S)-N-(1-(3-chloro-4-(N-oxetan-3-ylsulfamoyl)phenylamino)-1-oxo-3-phenylpropan-2-yl)-4-fluorobenzamide]
13 | 0.05 to 1 | CC(C)(C#N)NS(=O)(=O)c1ccc(NC(=O)[C@H](Cc2ccccc2)NC(=O)c2ccc(F)cc2)cn1 [Compound I-176, (S)-N-(1-(6-(N-(2-cyanopropan-2-yl)sulfamoyl)pyridin-3-ylamino)-1-oxo-3-phenylpropan-2-yl)-4-fluorobenzamide]
14 | 0.05 to 1 | N#Cc1cc(NC(=O)[C@H](Cc2ccccc2)NC(=O)c2ccc(F)cc2)ccc1S(=O)(=O)NC12CC(C1)C2 [Compound I-166, (S)-N-(1-(4-(N-bicyclo[1.1.1]pentan-1-ylsulfamoyl)-3-cyanophenylamino)-1-oxo-3-phenylpropan-2-yl)-4-fluorobenzamide]
15 | 0.05 to 1 | O=C(N[C@@H](Cc1ccccc1)C(=O)Nc1ccc(S(=O)(=O)N[C@@H]2CCOC2)nc1)c1ccc(F)cc1 [Compound I-179, 4-fluoro-N-((S)-1-oxo-3-phenyl-1-(6-(N-((R)-tetrahydrofuran-3-yl)sulfamoyl)pyridin-3-ylamino)propan-2-yl)benzamide]
16 | 0.05 to 1 | O=C(N[C@@H](Cc1ccccc1)C(=O)Nc1ccc(S(=O)(=O)NC23CC(C2)C3)c(Cl)c1)c1ccc(F)cc1 [Compound I-169, (S)-N-(1-(4-(N-bicyclo[1.1.1]pentan-1-ylsulfamoyl)-3-chlorophenylamino)-1-oxo-3-phenylpropan-2-yl)-4-fluorobenzamide]
17 | 1 to 10 | CN(C)CCNS(=O)(=O)c1ccc(NC(=O)[C@H](Cc2ccccc2)NC(=O)c2ccc(F)cc2)cn1 [Compound I-109, (S)-N-(1-(6-(N-(2-(dimethylamino)ethyl)sulfamoyl)pyridin-3-ylamino)-1-oxo-3-phenylpropan-2-yl)-4-fluorobenzamide formate]

same assay, conditions: read-out: USP30 IC50 μM (avg), Ubiquitin-Rhodamine substrate 25 nM, 1.5 nM recombinant USP30

Row | Structure (SMILES) | IC50 [µM]
18 | CC(C)(C)NS(=O)(=O)c1ccc(NC(=O)[C@H](Cc2ccccc2)NS(=O)(=O)c2ccc(F)cc2)cc1 [Compound I-165, (S)-N-(4-(N-tert-butylsulfamoyl)phenyl)-2-(4-fluorophenylsulfonamido)-3-phenylpropanamide] | > 10
19 | CC(C)(CCN1CCOCC1)NS(=O)(=O)c1ccc(NC(=O)[C@H](Cc2ccccc2)NC(=O)c2ccc(F)cc2)cc1 [Compound I-163, (S)-4-fluoro-N-(1-(4-(N-(2-methyl-4-morpholinobutan-2-yl)sulfamoyl)phenylamino)-1-oxo-3-phenylpropan-2-yl)benzamide] | < 0.05
20 | CN(C)S(=O)(=O)c1cccc2c(NC(=O)[C@H](Cc3ccccc3)NC(=O)C3CCCCC3)cccc12 [Compound I-127, (S)-N-(1-(5-(N,N-dimethylsulfamoyl)naphthalen-1-ylamino)-1-oxo-3-phenylpropan-2-yl)cyclohexanecarboxamide] | > 10
21 | O=C(NC1(C(=O)Nc2ccc(S(=O)(=O)NC3CC3)cc2)Cc2ccccc2C1)c1ccc(F)cc1 [Compound I-103, N-(4-(N-cyclopropylsulfamoyl)phenyl)-2-(4-fluorobenzamido)-2,3-dihydro-1H-indene-2-carboxamide] | > 10
22 | CC(C)(C)NS(=O)(=O)c1ccc(NC(=O)[C@H](Cc2ccccc2)NC(=O)C2COC2)cc1 [Compound I-86, (S)-N-(1-(4-(N-tert-butylsulfamoyl)phenylamino)-1-oxo-3-phenylpropan-2-yl)oxetane-3-carboxamide] | > 10
23 | CC(C)(C)NS(=O)(=O)c1ccc(NC(=O)[C@H](Cc2ccccc2)NC(=O)c2ccc(F)cc2)cc1C#N [Compound I-167, (S)-N-(1-(4-(N-tert-butylsulfamoyl)-3-cyanophenylamino)-1-oxo-3-phenylpropan-2-yl)-4-fluorobenzamide] | < 0.05
24 | CN(C)S(=O)(=O)c1cccc2c(NC(=O)[C@H](Cc3ccccc3)NC(=O)c3ccc(F)cc3)cccc12 [Compound I-128, (S)-N-(1-(5-(N,N-dimethylsulfamoyl)naphthalen-1-ylamino)-1-oxo-3-phenylpropan-2-yl)-4-fluorobenzamide] | > 10
25 | CC(C)(C)NS(=O)(=O)c1ccc(NC(=O)[C@H](Cc2ccccc2)NC(=O)c2ccc(F)cc2)cc1Cl [Compound I-168, (S)-N-(1-(4-(N-tert-butylsulfamoyl)-3-chlorophenylamino)-1-oxo-3-phenylpropan-2-yl)-4-fluorobenzamide] | < 0.05
26 | CC(C)(C)NS(=O)(=O)c1ccc(NC(=O)C2Cc3ccncc3N2C(=O)c2ccc(F)cc2)cc1 (stereo not shown) [Compound I-56, N-(4-(N-tert-butylsulfamoyl)phenyl)-1-(4-fluorobenzoyl)-2,3-dihydro-1H-pyrrolo[2,3-c]pyridine-2-carboxamide] | > 10
27 | C#CC(C)(C)NS(=O)(=O)c1ccc(NC(=O)[C@H](Cc2ccccc2)NC(=O)c2ccc(F)cc2)cc1 [Compound I-173, (S)-4-fluoro-N-(1-(4-(N-(2-methylbut-3-yn-2-yl)sulfamoyl)phenylamino)-1-oxo-3-phenylpropan-2-yl)benzamide] | < 0.05

Continued, values first:

Row | IC50 [µM] | Structure (SMILES)
28 | < 0.05 | O=C(N[C@@H](Cc1ccccc1)C(=O)Nc1ccc(S(=O)(=O)N[C@H]2CCOC2)nc1)c1ccc(F)cc1 [Compound I-178, 4-fluoro-N-((S)-1-oxo-3-phenyl-1-(6-(N-((S)-tetrahydrofuran-3-yl)sulfamoyl)pyridin-3-ylamino)propan-2-yl)benzamide]
29 | < 0.05 | COc1cc(NC(=O)[C@H](Cc2ccccc2)NC(=O)c2ccc(F)cc2)ccc1S(=O)(=O)N[C@@H]1CCOC1 [Compound I-183, 4-fluoro-N-((S)-1-(3-methoxy-4-(N-((R)-tetrahydrofuran-3-yl)sulfamoyl)phenylamino)-1-oxo-3-phenylpropan-2-yl)benzamide]
30 | < 0.05 | COc1cc(NC(=O)[C@H](Cc2ccccc2)NC(=O)c2ccc(F)cc2)ccc1S(=O)(=O)N[C@H]1CCOC1 [Compound I-182, 4-fluoro-N-((S)-1-(3-methoxy-4-(N-((S)-tetrahydrofuran-3-yl)sulfamoyl)phenylamino)-1-oxo-3-phenylpropan-2-yl)benzamide]
31 | < 0.05 | O=C(N[C@@H](Cc1ccccc1)C(=O)Nc1ccc(S(=O)(=O)N[C@H]2CCOC2)cc1)c1ccc(F)cc1 [Compound I-174, 4-fluoro-N-((S)-1-oxo-3-phenyl-1-(4-(N-((S)-tetrahydrofuran-3-yl)sulfamoyl)phenylamino)propan-2-yl)benzamide]
